Laboratory results taken from patent US20240041042A1, “1-(PYRIDYL)-5-AZINYLPYRAZOLE DERIVATIVES, AND THEIR USE FOR CONTROL OF UNDESIRED PLANT GROWTH” (Bayer Aktiengesellschaft, priority 2020, published 2024).

What was measured:
Format in all cases: in vivo
Avena fatua (AVEFA) = assay: Pre-emergence herbicidal action against AVEFA; details: visual scoring after about 3 weeks vs untreated controls
Summary of the method: (§1)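 Application rates ran to 320 g/ha or lower, with several dosages tested on the same weeds. The compound, as wettable powder or emulsion concentrate, is sprayed pre-emergence onto soil over sown seeds; greenhouse growth follows, and effect is rated visually after roughly 3 weeks.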

Lolium rigidum (LOLRI) = assay: Pre-emergence herbicidal action against LOLRI
Summary of the method: as §1

[1] = system: Matricaria inodora (MATIN); assay: Pre-emergence herbicidal action against MATIN
Summary of the method: as §1

[2] = system: Pharbitis purpurea (PHBPU); assay: Pre-emergence herbicidal action against PHBPU
Summary of the method: as §1

[3] = system: Polygonum convolvulus (POLCO); assay: Pre-emergence herbicidal action against POLCO
Summary of the method: as §1

[4] = system: Verconica persica (VERPE); assay: Pre-emergence herbicidal action against VERPE
Summary of the method: as §1

[5] = system: Polygonum convolvulus (POLCO); assay: Post-emergence herbicidal action against POLCO
Summary of the method: (§2)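 Values are percent visual activity (0% like control, 100% plants dead) after about 3 weeks in the greenhouse. Treatment: post-emergence spray at one-leaf stage, 600 l/ha spray volume, 0.5% additive, doses 320 g/ha or lower.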

Setaria viridis (SETVI) = assay: Post-emergence herbicidal action against SETVI
Summary of the method: as §2

[6] = system: Verconica persica (VERPE); assay: Post-emergence herbicidal action against VERPE
Summary of the method: as §2

Viola tricolor (VIOTR) = assay: Post-emergence herbicidal action against VIOTR
Summary of the method: as §2

| Structure (SMILES) | Pre-emergence action against AVEFA in % (Avena fatua (AVEFA); 80 g/ha) | Pre-emergence action against AVEFA in % (Avena fatua (AVEFA); 320 g/ha) | Pre-emergence action against LOLRI in % (Lolium rigidum (LOLRI); dosage 80 g/ha) | Pre-emergence action against LOLRI in % (Lolium rigidum (LOLRI); dosage 320 g/ha) | Pre-emergence action against MATIN in % ([1]; dosage 80 g/ha) | Pre-emergence action against MATIN in % ([1]; dosage 320 g/ha) | Pre-emergence action against PHBPU in % ([2]; dosage 80 g/ha) | Pre-emergence action against PHBPU in % ([2]; dosage 320 g/ha) | Pre-emergence action against POLCO in % ([3]; dosage 80 g/ha) | Pre-emergence action against POLCO in % ([3]; dosage 320 g/ha) | Pre-emergence action against VERPE in % ([4]; dosage 80 g/ha) | Pre-emergence action against VERPE in % ([4]; dosage 320 g/ha) | Post-emergence action against POLCO in % ([5]; dosage 80 g/ha) | Post-emergence action against POLCO in % ([5]; dosage 320 g/ha) | Post-emergence action against SETVI in % (Setaria viridis (SETVI); dosage 80 g/ha) | Post-emergence action against SETVI in % (Setaria viridis (SETVI); dosage 320 g/ha) | Post-emergence action against VERPE in % ([6]; 320 g/ha, VERPE) | Post-emergence action against VERPE in % ([6]; dosage 80 g/ha) | Post-emergence action against VIOTR in % (Viola tricolor (VIOTR); 80 g/ha) | Post-emergence action against VIOTR in % (Viola tricolor (VIOTR); 320 g/ha) |
| --- | --- | --- | --- | --- | --- | --- | --- | --- | --- | --- | --- | --- | --- | --- | --- | --- | --- | --- | --- | --- |
| C[C@@H](Oc1nn(-c2nc(F)ccc2F)c(-c2cncc(F)c2)c1C1CC1)C(=O)O [Example I-180] | 90% | 90% | 100% | 100% | 90% | 90% | 90% | 90% | 90% | 100% | 100% | 100% | 80% | 90% | 80% | 90% | 90% | 80% | 80% | 80% |
| CCOC(=O)COc1nn(-c2ccccn2)c(-c2ccc(F)nc2)c1Br [Example I-02] | 90% | 100% | 90% | 100% | – | 100% | – | 90% | 80% | 80% | – | 90% | 80% | 80% | 80% | 80% | 80% | 80% | – | 80% |
| CCOC(=O)[C@@H](C)Oc1nn(-c2nc(F)ccc2F)c(-c2cncc(F)c2)c1Cl [Example I-208] | 80% | 90% | 90% | 100% | 90% | 90% | 90% | 90% | 90% | 90% | 90% | 100% | – | 80% | 80% | 80% | 80% | 80% | 80% | 80% |
| O=C(O)COc1nn(-c2ncccc2F)c(-c2cncc(F)c2)c1C1CC1 [Example I-175] | – | 90% | 100% | 100% | 90% | 90% | 80% | 90% | 90% | 90% | 100% | 100% | 80% | 80% | – | 80% | 80% | 80% | 80% | 80% |
| O=C(O)COc1nn(-c2ncccc2F)c(-c2ccc(F)nc2)c1Br [Example I-08] | 80% | 90% | 80% | 100% | – | 100% | – | 80% | 80% | 100% | – | 100% | 90% | 90% | 80% | 90% | 90% | 90% | 80% | 80% |
| COC(=O)CNC(=O)[C@@H](C)Oc1nn(-c2ccccn2)c(-c2cncc(F)c2)c1Br [Example I-187] | – | 90% | 90% | 100% | 90% | 90% | 90% | 90% | 90% | 90% | 90% | 90% | 80% | 80% | – | 80% | 90% | 90% | 80% | 90% |
| COC(=O)COc1nn(-c2ncccc2F)c(-c2ccc(F)nc2)c1Br [Example I-07] | – | 90% | – | 100% | 80% | 100% | – | 90% | 90% | 100% | – | 100% | 80% | 80% | 90% | 90% | 90% | 90% | 90% | 90% |
| C[C@@H](Oc1nn(-c2ncccc2F)c(-c2ccc(F)nc2)c1Br)C(=O)O [Example I-10] | – | 100% | 100% | 100% | 80% | 100% | 90% | 90% | 100% | 100% | 80% | 100% | 80% | 80% | 80% | 80% | 80% | – | – | 80% |
| CCOC(=O)COc1nn(-c2ncccc2F)c(-c2cncc(F)c2)c1C1CC1 [Example I-174] | – | 90% | 100% | 100% | 90% | 90% | 90% | 90% | 90% | 100% | 100% | 100% | – | 80% | – | – | 80% | 80% | 80% | 80% |
